In US6225350A, “Butyrate prodrugs derived from lactic acid” (Vertex Pharmaceuticals, Inc., priority 1999, dated 2001):

What was measured:
[1] = in vivo; cited from earlier work
[2] = rhesus monkey, in vivo
Protocol: The efficacy of compound IIIc administered in conjunction with hydroxyurea was tested on six anemic rhesus monkeys divided into three groups of two each. Each group was studied in two phases, as shown below. Fetal hemoglobin cells (F cells), Hemoglobin F level in total Hemoglobin (%Hb F) and %y globin chain levels were monitored before and after each of the two phases. %F cells were measured according to the protocol described in Betke et al, Blut., 4, pp. 241-9 (1958). %Hb F and %y globin chain synthesis were measured using High Performance Liquid Chromatography (HPLC) according to the protocol described in Huisman, J. Chromagtogr., 418, pp. 277 (1987).

Hemoglobin F = assay: Efficacy study in anemic rhesus monkeys: %Hb F by HPLC; type: in vivo
y globin chain = assay: Efficacy study in anemic rhesus monkeys: %y globin chain by HPLC; type: in vivo
[3] = tested on: Fetal hemoglobin cells (F cells); assay: Efficacy study in anemic rhesus monkeys: %F cells; type: in vivo; details: for %F cell count: 8-10% before Phase I
[4] = tested on: retinoblastoma cell lines; details: Human Y-79 retinoblastoma cell line; cited from earlier work
[5] = tested on: colorectal carcinoma cell lines; details: cited from earlier work
pancreatic cancer cells = details: cited from earlier work
Erythroleukemic Cells = details: cited from earlier work
leukemia = details: cited from earlier work
[6] = Group I (hydroxyurea in Phase I, hydroxyurea + compound IIIc in Phase II)

CCCC(=O)OCOC(=O)C(C)(C)C [AN-9]
metabolites / toxic effects [1]: elicit metabolites that may produce formaldehyde in vivo, leading to toxic effects in patients

CCCC(=O)O[C@@H](C)C(=O)OCC [Compound IIIc]
levels of ALT prior to or during the phases [2]: no detectable difference
levels of the triglycerides prior to or during the phases [2]: no detectable difference
HBf level, change (Hemoglobin F; Groups II and III): no measurable change
Y-globin chain level, change (y globin chain; Groups II and III): no measurable change
%F cell count ([3]; Animal 2, group II, end of Phase I (compound IIIc 1 g/kg/day, 5 weeks)): 15%
%F cell count ([3]; Animal 2, group II, end of Phase II (compound IIIc 1 g/kg/TID, 5 weeks)): 22%
%F cells, change ([3]; Groups II and III): small but significant increase

NC(=O)NO [Hydroxyurea]
levels of ALT prior to or during the phases [2]: no detectable difference
levels of the triglycerides prior to or during the phases [2]: no detectable difference
%Hb F, change (Hemoglobin F; [6]): measurable increase
%y-globin chain level, change (y globin chain; [6]): measurable increase
%F cell count ([3]; Animal 1, group I, end of Phase I (hydroxyurea 50 mg/kg/day, 5 weeks)): 25%

CCCC(=O)[O-].[Na+] [Sodium butyrate]
apoptosis in retinoblastoma cell lines [4]: induce apoptosis
apoptosis in colorectal carcinoma cell lines [5]: induce apoptosis
antigen expression in pancreatic cancer cells (pancreatic cancer cells): modify antigen expression

CCCC(=O)O [butyric acid]
cell differentiation in vitro (Erythroleukemic Cells): induces cell differentiation
effects in leukemia patients (leukemia): promising effects in leukemia patients
